US8895561B2, “Compounds and methods for treating candidiasis and aspergillus infections” (Cellceutix Corporation, priority 2012, dated 2014)
Values after ≈ are worked out from the molar mass of the structure shown.

What was measured:
Format in all cases: cell-based
C. albicans GDH2346 [1] = experiment: Candida MIC, CLSI M27-A3; conditions: Table 5
Procedure: (§1) Candida MIC assays were determined in accordance with CLSI guidelines M27-A3 using a clinically isolated C. albicans strain, GDH2346.50% human serum was added to determine activity in the presence of serum.

A. viscosis = experiment: Commensal bacteria MIC, broth microdilution
Procedure: (§2) Bacterial MICs were determined using a broth microdilution assay under standard
(§3) CLSI conditions Bacteria strains: clinical isolates; yeast strains: C. dubliniensis (NCPF3949), C. glabrata (ATCC 90030), C. krusei (ATCC 6258), C. parapsilosis (ATCC 22019), and C. tropicalis (ATCC 750). Cytotoxicity (EC50) was determined against mouse 3T3 fibroblasts, human transformed liver HepG2 cells, and human oral keratinocyte cell line, OKF6/TERT using an MTS viability assay.

S. salivarius = experiment: Commensal bacteria MIC, broth microdilution
Procedure: as §2, §3

[2] = test system: C. dubliniensis (NCPF3949); experiment: Yeast MIC; conditions: Table 5
Procedure: as §1, §3

C. tropicalis (ATCC 750) = experiment: Yeast MIC
Procedure: as §1, §3

[3] = test system: C. parapsilosis (ATCC 22019); experiment: Yeast MIC
Procedure: as §1, §3

C. glabrata (ATCC 90030) = experiment: Yeast MIC; conditions: Table 5
Procedure: as §1, §3

C. krusei (ATCC 6258) = experiment: Yeast MIC
Procedure: as §1, §3

C. albicans GDH2346 [4] = experiment: Candida IC50, vegetative cells, by OD600 and fluorescence
Procedure: Candida IC50s were determined by OD600 and fluorescence from vegetative cells and by MTS viability assay in the hyphal state. MICs were determined using a broth microdilution assay under standard CLSI conditions Bacteria strains: E. coli 25922 (EC), S. aureus 27660 (SA), E. faecalis 29212 (EF), P. aeruginosa 10145 (PA), and K. pneumoniae 13883 (KP). Cytotoxicity (EC50) was determined against mouse 3T3 fibroblasts, human transformed liver HepG2 cells, and human oral keratinocyte cell line, OKF6/TERT using an MTS viability assay. Candida IC50s<10 μg/mL, MICs<5 μg/mL and cytotoxicity EC50s>100 μM are indicated in green. MICs>5 μg/mL and cytotoxicity EC50s<100 μM are indicated in red. Candida IC50s (CA) were determined by OD600 and fluorescence from vegetative cells. MICs were determined using a broth microdilution assay under standard CLSI conditions Bacteria strains: E. coli 25922 (EC), S. aureus 27660 (SA), E. faecalis 29212 (EF), P. aeruginosa 10145 (PA), and K. pneumoniae 13883 (KP). Cytotoxicity (EC50) was determined against mouse 3T3 fibroblasts and human transformed liver HepG2 cells using an MTS viability assay. For determination of anti-Candida IC50s, the method was modified by using RPMI/MOPS buffer pH 6.3 and by addition of FDGlu, a substrate for the yeast enzyme exoglucanase which is secreted during cell growth. This provides a fluorescent readout for cell growth which was used in addition to the traditional optical density measure of growth. OD600 and fluorescence were determined at 24 and 48 hours and the average of all 4 reads was used for the final IC50 determination.

[5] = test system: C. albicans GDH2346 hyphal biofilm; experiment: Candida IC50 in the hyphal state / hyphal biofilm, MTS viability assay; conditions: 2-day hyphal biofilm cultures
Procedure: Candida IC50s were determined by OD600 and fluorescence from vegetative cells and by MTS viability assay in the hyphal state. MICs were determined using a broth microdilution assay under standard CLSI conditions Bacteria strains: E. coli 25922 (EC), S. aureus 27660 (SA), E. faecalis 29212 (EF), P. aeruginosa 10145 (PA), and K. pneumoniae 13883 (KP). Cytotoxicity (EC50) was determined against mouse 3T3 fibroblasts, human transformed liver HepG2 cells, and human oral keratinocyte cell line, OKF6/TERT using an MTS viability assay. Candida IC50s<10 μg/mL, MICs<5 μg/mL and cytotoxicity EC50s>100 μM are indicated in green. MICs>5 μg/mL and cytotoxicity EC50s<100 μM are indicated in red. To form the biofilm, yeast were grown in RPMI/MOPS, 0.4% sucrose pH7.4 media supplemented with 10% FBS in tissue culture-treated flat bottom 96 well plates for 48 hours. The filamentous yeast cultures were then vigorously washed to remove any non-filamentous, non-attached yeast. The remaining attached filamentous biofilm yeast were incubated in saline containing serially diluted compounds for 24 hours. The cultures were aspirated to remove compound, rinsed and overlayed with RPMI/MOPS, 0.4% sucrose pH7.4 media. Biofilm viability was measured using a cell proliferation assay (CellTiter96 Aqueous Kit from Promega) and IC50s were determined using Prism GraphPad software (nonlinear fit, Table 3).

mouse 3T3 fibroblasts = experiment: Cytotoxicity, MTS viability assay
Procedure: (§4) Candida IC50s were determined by OD600 and fluorescence from vegetative cells and by MTS viability assay in the hyphal state. MICs were determined using a broth microdilution assay under standard CLSI conditions Bacteria strains: E. coli 25922 (EC), S. aureus 27660 (SA), E. faecalis 29212 (EF), P. aeruginosa 10145 (PA), and K. pneumoniae 13883 (KP). Cytotoxicity (EC50) was determined against mouse 3T3 fibroblasts, human transformed liver HepG2 cells, and human oral keratinocyte cell line, OKF6/TERT using an MTS viability assay. Candida IC50s<10 μg/mL, MICs<5 μg/mL and cytotoxicity EC50s>100 μM are indicated in green. MICs>5 μg/mL and cytotoxicity EC50s<100 μM are indicated in red.
(§5) Candida IC50s (CA) were determined by OD600 and fluorescence from vegetative cells. MICs were determined using a broth microdilution assay under standard CLSI conditions Bacteria strains: E. coli 25922 (EC), S. aureus 27660 (SA), E. faecalis 29212 (EF), P. aeruginosa 10145 (PA), and K. pneumoniae 13883 (KP). Cytotoxicity (EC50) was determined against mouse 3T3 fibroblasts and human transformed liver HepG2 cells using an MTS viability assay.
as §3

[6] = test system: human transformed liver HepG2 cells; experiment: Cytotoxicity, MTS viability assay
Procedure: as §4, §5, §3

E. coli 25922 = experiment: Bacterial MIC, broth microdilution, CLSI
Procedure: as §4, with “red. Candida IC50s (CA) were determined by OD600 and fluorescence from vegetative cells. MICs were determined using a broth microdilution assay under standard CLSI conditions Bacteria strains: E. coli 25922 (EC), S. aureus 27660 (SA), E. faecalis 29212 (EF), P. aeruginosa 10145 (PA), and K. pneumoniae 13883 (KP). Cytotoxicity (EC50) was determined against mouse 3T3 fibroblasts and human transformed liver HepG2 cells using an MTS viability assay.” for “red.”

P. aeruginosa 10145 = experiment: Bacterial MIC, broth microdilution, CLSI
Procedure: as §4, with “red. Candida IC50s (CA) were determined by OD600 and fluorescence from vegetative cells. MICs were determined using a broth microdilution assay under standard CLSI conditions Bacteria strains: E. coli 25922 (EC), S. aureus 27660 (SA), E. faecalis 29212 (EF), P. aeruginosa 10145 (PA), and K. pneumoniae 13883 (KP). Cytotoxicity (EC50) was determined against mouse 3T3 fibroblasts and human transformed liver HepG2 cells using an MTS viability assay.” for “red.”

S. aureus 27660 = experiment: Bacterial MIC, broth microdilution, CLSI
Procedure: as §4, with “red. Candida IC50s (CA) were determined by OD600 and fluorescence from vegetative cells. MICs were determined using a broth microdilution assay under standard CLSI conditions Bacteria strains: E. coli 25922 (EC), S. aureus 27660 (SA), E. faecalis 29212 (EF), P. aeruginosa 10145 (PA), and K. pneumoniae 13883 (KP). Cytotoxicity (EC50) was determined against mouse 3T3 fibroblasts and human transformed liver HepG2 cells using an MTS viability assay.” for “red.”

E. faecalis 29212 = experiment: Bacterial MIC, broth microdilution, CLSI
Procedure: as §4, with “red. Candida IC50s (CA) were determined by OD600 and fluorescence from vegetative cells. MICs were determined using a broth microdilution assay under standard CLSI conditions Bacteria strains: E. coli 25922 (EC), S. aureus 27660 (SA), E. faecalis 29212 (EF), P. aeruginosa 10145 (PA), and K. pneumoniae 13883 (KP). Cytotoxicity (EC50) was determined against mouse 3T3 fibroblasts and human transformed liver HepG2 cells using an MTS viability assay.” for “red.”

MIC C. albicans (C. albicans GDH2346 [1])	MIC A. viscosis (A. viscosis)	MIC S. salivarius (S. salivarius)	MIC C. dubliniensis [2]	MIC C. tropicalis (C. tropicalis (ATCC 750))	MIC C. parapsilosis [3]	MIC C. glabrata (C. glabrata (ATCC 90030))	MIC C. krusei (C. krusei (ATCC 6258))	Anti-C. albicans GDH2346 Vegetative (IC50) (C. albicans GDH2346 [4]; vegetative cultures)	Compound	further results
2 µg/mL (≈ 5.12 µM)	8 µg/mL (≈ 20.5 µM)	32 µg/mL (≈ 81.9 µM)	4 µg/mL (≈ 10.2 µM)	0.5 µg/mL (≈ 1.28 µM)	4 µg/mL (≈ 10.2 µM)	4 µg/mL (≈ 10.2 µM)	4 µg/mL (≈ 10.2 µM)	2.20 µg/mL	N=C(N)NCCc1cccc(-c2ccc(-c3cccc(CCNC(=N)N)c3)o2)c1 [Compound 187]	–
–	–	–	–	–	–	–	–	–	N=C(N)NCCc1cccc(-c2ccc(-c3cccc(CCNC(=N)N)c3)cc2)c1 [Compound 186]	MIC (C. albicans GDH2346 [1]; Candida albicans, GDH2346, read-out: MIC C. albicans): 2 µg/mL (≈ 4.99 µM); MIC (A. viscosis): 4 µg/mL (≈ 9.99 µM); MIC (S. salivarius; Streptococcus salivarius): 8 µg/mL (≈ 20 µM); MIC ([2]; Candida dubliniensis, NCPF3949, read-out: MIC C. dubliniensis): 2 µg/mL (≈ 4.99 µM); MIC (C. tropicalis (ATCC 750); Candida tropicalis, ATCC750): 0.5 µg/mL (≈ 1.25 µM); MIC ([3]; Lodderomyces parapsilosis, ATCC22019): 2 µg/mL (≈ 4.99 µM); MIC (C. glabrata (ATCC 90030); Nakaseomyces glabratus, ATCC90030, read-out: MIC C. glabrata): 2 µg/mL (≈ 4.99 µM); MIC (C. krusei (ATCC 6258); Pichia kudriavzevii, ATCC6258): 2 µg/mL (≈ 4.99 µM); IC50 (C. albicans GDH2346 [4]; Candida albicans, GDH2346, vegetative cultures, read-out: Anti-C. albicans GDH2346 Vegetative (IC50)): 1.03 µg/mL (≈ 2.57 µM); IC50 ([5]; Candida albicans, 48 h, read-out: Anti-C. albicans GDH2346 Hyphal (IC50)): 1.4 µg/mL (≈ 3.5 µM)
–	–	–	–	–	–	–	–	–	NCCCn1c2cc(-c3ccc(CCN)c(CCN)c3)ccc2c2ccc(-c3ccc(CCN)c(CCN)c3)cc21 [Compound 159]	EC50 (mouse 3T3 fibroblasts): 61 µM; EC50 [6]: 64 µM; CA (Candida IC50) (C. albicans GDH2346 [4]; vegetative cells): 2.11 µg/mL; EC (MIC) (E. coli 25922): 0.78 µg/mL; PA (MIC) (P. aeruginosa 10145): 6.25 µg/mL; SA (MIC) (S. aureus 27660): 0.78 µg/mL; EF (MIC) (E. faecalis 29212): 3.13 µg/mL
2 µg/mL (≈ 4.91 µM)	16 µg/mL (≈ 39.3 µM)	64 µg/mL (≈ 157 µM)	4 µg/mL (≈ 9.81 µM)	0.5 µg/mL (≈ 1.23 µM)	4 µg/mL (≈ 9.81 µM)	4 µg/mL (≈ 9.81 µM)	4 µg/mL (≈ 9.81 µM)	2.08 µg/mL	N=C(N)NCCc1cccc(-c2cnc(-c3cccc(CCNC(=N)N)c3)s2)c1 [Compound 188]	Anti-C. albicans GDH2346 Hyphal (IC50) [5]: 2.22 µg/mL
